Structures can show the parent of a compound that is named as a salt.
Key:
Assay type in all cases: functional
[1] = Growth inhibition of human leukemia cells after 48 hrs; settings: Leukemia cell; for CC50: read-out: LC50 (the source's name)
NSCLC = assay: Growth inhibition of human NSCLC cells after 48 hrs
[2] = Growth inhibition of human colon cancer cells after 48 hrs; settings: Cancer cell lines; for CC50: read-out: LC50 (the source's name)
[3] = Growth inhibition of human CNS cancer cells after 48 hrs; settings: Cancer cell lines; for CC50: read-out: LC50 (the source's name)
[4] = Growth inhibition of human melanoma cells after 48 hrs; settings: Melanoma cell; for CC50: read-out: LC50 (the source's name)
[5] = Growth inhibition of human Ovarian cancer cells after 48 hrs; settings: Cancer cell lines; for CC50: read-out: LC50 (the source's name)
[6] = Growth inhibition of human renal cancer cells after 48 hrs; settings: Cancer cell lines; for CC50: read-out: LC50 (the source's name)
[7] = Growth inhibition of human prostate cancer cells after 48 hrs; settings: Cancer cell lines; for CC50: read-out: LC50 (the source's name)
[8] = Growth inhibition of human breast cancer cells after 48 hrs; settings: Cancer cell lines; for CC50: read-out: LC50 (the source's name)

Compound | GI50 [1] | GI50 (NSCLC) | LC50 (NSCLC) | GI50 [2] | CC50 [2] | GI50 [3] | GI50 [4] | CC50 [4] | GI50 [5] | GI50 [6] | CC50 [6] | GI50 [7] | GI50 [8] | TGI [1] | TGI (NSCLC) | CC50 [3] | CC50 [5] | CC50 [8] | CC50 [1] | CC50 [7] | also measured
CN(C)c1ccc2[nH]c(Cl)c(/C=C3/C(=O)Nc4ccc(O)cc43)c2c1 | 2.24 µM | 5.13 µM | 95.5 µM | 3.89 µM | 69.2 µM | 3.8 µM | 5.25 µM | 79.4 µM | 7.24 µM | 5.13 µM | 91.2 µM | 8.91 µM | 2.88 µM |  |  |  |  |  |  |  | 
COc1cc2c(/C=C3/C(=O)N(C)c4ccc(O)cc43)c[nH]c2cc1C | 3.47 µM | 6.03 µM | 91.2 µM | 2.95 µM |  | 3.72 µM | 3.24 µM | 66.1 µM | 5.62 µM | 5.89 µM | 93.3 µM | 3.55 µM | 2.75 µM | 36.3 µM | 21.9 µM | 67.6 µM | 95.5 µM | 63.1 µM |  |  | TGI [2]: 24.6 µM; TGI [3]: 24 µM; TGI [4]: 15.1 µM; TGI [5]: 31.6 µM; TGI [6]: 28.2 µM; TGI [7]: 15.8 µM; TGI [8]: 16.2 µM
COc1cc2c(/C=C3/C(=O)Nc4ccc(Br)cc43)c(Cl)[nH]c2cc1C | 1.62 µM | 3.02 µM | 53.7 µM | 1.95 µM | 23.4 µM | 1.58 µM | 2.14 µM | 41.7 µM | 2 µM | 2.45 µM | 37.1 µM | 2.24 µM | 2.14 µM |  |  | 35.5 µM | 38.9 µM | 50.1 µM | 37.1 µM | 30.9 µM | 
COc1cc2c(cc1C)NC(=O)/C2=C/c1c(Cl)n(C)c2cc(C)c(OC)cc12 | 18.2 µM | 34.7 µM |  | 22.9 µM |  | 26.9 µM | 15.1 µM | 57.5 µM | 30.2 µM | 41.7 µM |  | 22.4 µM | 18.6 µM |  |  |  |  | 95.5 µM | 97.7 µM |  | 
COc1cc2c(/C=C3/C(=O)N(C)c4ccccc43)c(Cl)n(C)c2cc1C | 0.25 µM | 0.58 µM |  | 0.2 µM | 72.4 µM | 0.2 µM | 0.34 µM | 69.2 µM | 0.38 µM | 0.33 µM | 79.4 µM | 0.39 µM | 0.28 µM |  |  | 74.1 µM | 95.5 µM | 95.5 µM | 46.8 µM | 66.1 µM | 
COc1cc2c(cc1C)N(C)C(=O)/C2=C/c1c(Cl)n(C)c2cc(C)c(OC)cc12 | 6.92 µM | 19.5 µM | 93.3 µM | 20.4 µM | 97.7 µM | 10.5 µM | 16.2 µM |  | 18.6 µM | 15.8 µM | 77.6 µM | 35.5 µM | 6.76 µM |  |  | 61.7 µM | 89.1 µM | 83.2 µM |  |  | 
COc1ccc2c(c1)/C(=C\c1c(Cl)[nH]c3ccc(N(C)C)cc13)C(=O)N2 | 1.62 µM | 3.02 µM | 58.9 µM | 1.55 µM | 30.2 µM | 2.09 µM | 3.55 µM | 44.7 µM | 3.39 µM | 3.02 µM | 52.5 µM | 2.88 µM | 1.15 µM |  |  | 32.4 µM | 50.1 µM | 55 µM | 72.4 µM | 50.1 µM | 
O=C1Nc2ccc(F)cc2/C1=C\c1c(Cl)[nH]c2c1ccc1ccccc12 |  |  |  |  |  |  |  |  |  |  |  |  | 0.4 µM |  |  | 51.3 µM |  | 70.8 µM |  |  | 
Cc1cc2c(cc1O)/C(=C\c1c(Cl)[nH]c3c1ccc1ccccc13)C(=O)N2 | 3.31 µM | 7.94 µM |  | 6.61 µM | 61.7 µM | 8.71 µM | 6.46 µM | 57.5 µM | 9.12 µM | 8.71 µM | 75.9 µM |  | 3.72 µM | 38 µM | 30.2 µM | 67.6 µM | 87.1 µM | 69.2 µM |  | 74.1 µM | TGI [2]: 20.9 µM; TGI [3]: 24.6 µM; TGI [4]: 20.9 µM; TGI [5]: 46.8 µM; TGI [6]: 33.1 µM; TGI [7]: 26.3 µM; TGI [8]: 19.1 µM
COc1cc2c(cc1C)NC(=O)/C2=C/c1c[nH]c2ccccc12 | 8.71 µM | 13.5 µM | 89.1 µM | 8.13 µM | 95.5 µM | 10 µM | 13.2 µM | 81.3 µM | 12.6 µM | 11.5 µM | 85.1 µM | 13.8 µM | 11.8 µM | 55 µM | 43.6 µM | 95.5 µM | 97.7 µM | 91.2 µM |  | 91.2 µM | TGI [2]: 52.5 µM; TGI [3]: 33.9 µM; TGI [4]: 37.1 µM; TGI [5]: 45.7 µM; TGI [6]: 38 µM; TGI [7]: 36.3 µM; TGI [8]: 40.7 µM
COc1cc2c(/C=C3/C(=O)N(C)c4ccccc43)c[nH]c2cc1C | 2 µM | 6.31 µM | 93.3 µM | 0.76 µM | 97.7 µM | 1.07 µM | 3.09 µM | 97.7 µM | 7.76 µM | 4.17 µM |  | 4.17 µM | 1.78 µM | 35.5 µM | 66.1 µM | 95.5 µM |  |  | 93.3 µM |  | TGI [2]: 60.3 µM; TGI [3]: 42.7 µM; TGI [4]: 74.1 µM; TGI [5]: 60.3 µM; TGI [6]: 60.3 µM; TGI [7]: 81.3 µM; TGI [8]: 55 µM
COc1cc2c(/C=C3/C(=O)Nc4cc(Cl)ccc43)c(Cl)[nH]c2cc1C | 0.14 µM | 0.43 µM | 52.5 µM | 0.17 µM | 25.7 µM | 0.12 µM | 0.23 µM | 35.5 µM | 0.28 µM | 0.23 µM | 46.8 µM | 0.22 µM | 0.15 µM |  |  | 41.7 µM | 49 µM | 39.8 µM | 58.9 µM | 41.7 µM | 
O=C1Nc2cccc(Cl)c2/C1=C\c1c(Cl)[nH]c2c1ccc1ccccc12 | 5.5 µM | 9.55 µM | 72.4 µM | 4.9 µM | 47.9 µM | 3.63 µM | 4.57 µM | 46.8 µM | 2.51 µM | 8.91 µM | 56.2 µM | 10.2 µM | 5.01 µM | 25.7 µM | 28.2 µM | 53.7 µM | 57.5 µM | 67.6 µM | 75.9 µM | 63.1 µM | TGI [2]: 17.4 µM; TGI [3]: 17.8 µM; TGI [4]: 19.1 µM; TGI [5]: 13.2 µM; TGI [6]: 23.4 µM; TGI [7]: 31.6 µM; TGI [8]: 19.9 µM
CC[C@]1(O)C[C@H]2CN(CCc3c([nH]c4ccccc34)[C@@](C(=O)OC)(c3cc4c(cc3OC)N(C=O)[C@H]3[C@@](O)(C(=O)OC)[C@H](OC(C)=O)[C@]5(CC)C=CCN6CC[C@]43[C@@H]65)C2)C1 [VINCRISTINE SULFATE] | 0.1 µM | 0.25 µM |  | 0.1 µM | 79.4 µM | 0.13 µM | 0.16 µM | 251 µM | 0.32 µM | 0.32 µM | 251 µM | 0.13 µM | 0.32 µM |  |  | 200 µM | 316 µM | 316 µM | 631 µM | 316 µM | 
O=C1Nc2ccc(Cl)cc2/C1=C\c1c(Cl)[nH]c2c1ccc1ccccc12 |  |  |  |  |  |  |  |  |  |  |  | 0.38 µM |  |  |  |  |  |  |  |  | 
COc1cc2c(cc1C)NC(=O)/C2=C/c1c(Cl)[nH]c2c1ccc1ccccc12 |  |  | 47.9 µM |  |  | 0.31 µM |  |  |  |  |  |  |  |  |  |  |  |  |  |  | 
COc1ccc2[nH]cc(/C=C3/C(=O)Nc4ccccc43)c2c1 | 2.34 µM | 5.13 µM |  | 2.24 µM | 70.8 µM | 6.17 µM | 6.61 µM | 75.9 µM | 6.31 µM | 5.75 µM | 83.2 µM | 5.62 µM | 3.47 µM | 7.76 µM | 25.1 µM | 75.9 µM | 81.3 µM | 91.2 µM | 43.6 µM | 83.2 µM | TGI [2]: 15.5 µM; TGI [3]: 28.8 µM; TGI [4]: 27.5 µM; TGI [5]: 30.2 µM; TGI [6]: 26.3 µM; TGI [7]: 24 µM; TGI [8]: 18.2 µM
COc1cc2c(/C=C3/C(=O)N(C)c4ccc(O)cc43)c(Cl)n(C)c2cc1C | 0.05 µM | 0.22 µM | 42.7 µM | 0.07 µM | 26.9 µM | 0.04 µM | 0.11 µM | 33.1 µM | 0.26 µM | 0.11 µM | 36.3 µM | 0.1 µM | 0.06 µM |  |  | 29.5 µM | 47.9 µM | 40.7 µM | 19.9 µM | 24 µM | 
COc1cc2c(/C=C3/C(=O)Nc4ccc(Br)cc43)c(Cl)n(C)c2cc1C | 2.51 µM | 1.91 µM | 37.1 µM | 1.55 µM | 29.5 µM | 0.93 µM | 1.55 µM | 31.6 µM | 3.47 µM | 1.7 µM | 26.9 µM | 1.55 µM | 0.95 µM |  |  | 38.9 µM | 43.6 µM | 31.6 µM |  | 26.3 µM | 
COc1cc2c(/C=C3/C(=O)Nc4ccccc43)c[nH]c2cc1C | 0.09 µM |  |  |  |  |  |  |  |  |  |  |  | 0.12 µM |  |  | 53.7 µM |  |  |  |  | 
